# In paper PMC8365446, “Structural determinants and distribution of phosphate specificity in ribonucleotide reductases” (The Journal of Biological Chemistry, 2021):
# Read-outs that look alike come from different tables or passages of the source.
# How the values were obtained:
# TVNrdJm [1] = system: T1, TVNrdJm; assay: HPLC quantification of deoxyribonucleotide, Michaelis-Menten fit; format: biochemical, Thermus virus P74-23; details: effector dTTP, adenosylcobalamin, TCEP, 20 mmol L^−1 MgCl2, Tris pH 8.0, 40 °C
# T1 construct: gene nrdJ; monomeric-type class II RNR; pET28b(+) NdeI/HindIII, E. coli BL21(DE3); apical loop P-A-G-R with A67, G68, R69
# TVNrdJm [2] = system: T2, TVNrdJm; details: read-out: apparent KM; effector dTTP, adenosylcobalamin, TCEP, 20 mmol L^−1 MgCl2, Tris pH 8.0, 40 °C; apparent fitted value, called lower boundary by authors (substrate inhibition omitted)
# T2 construct: gene nrdJ
Structure (SMILES),Km (TVNrdJm [1]) [µM],Km (TVNrdJm [2]) [µM]
Nc1nc2c(ncn2[C@@H]2O[C@H](COP(=O)(O)OP(=O)(O)OP(=O)(O)O)[C@@H](O)[C@H]2O)c(=O)[nH]1 [GTP],300 ± 60,
Nc1nc2c(ncn2[C@@H]2O[C@H](COP(=O)(O)OP(=O)(O)O)[C@@H](O)[C@H]2O)c(=O)[nH]1 [GDP],,> 6850
